Results as given in patent US20160081974A1, “COMPOSITION FOR PREVENTING OR TREATING EDEMA CONTAINING FLAVONOID COMPOUND” (Research & Business Foundation SUNGKYUNKWAN UNIVERSITY, priority 2014, published 2016).

What was measured:
PPAR-γ mRNA [1] = assay: PPAR-γ mRNA in lipedema tissue; type: in vivo, mouse; settings: butein injected for 14 days
Method: (§1) Lymph nodes were removed from a mouse leg by a similar method to the method described in Example 1 to induce lipedema in the experimental animal, and an increase in edema was confirmed about 3 days after the removal of the lymph nodes.
(§2) In this example, to investigate a mechanism for inducing the reduction of lipedema, expression of an adipocyte-related marker that is easily found in lipedema was examined. An edema tissue was isolated after butein was injected into lipedema for 14 days, and mRNAs of adipocyte markers, PPAR-γ and aP2, isolated from total RNA were quantified, and the result is shown in FIG. 7. Referring to FIG. 7, it could be confirmed that butein reduced the expression of PPAR-γ and aP2. Therefore, it can be seen that the inhibition of adipocytes by the butein administration has an influence on lipedema reduction.

lipedema-induced mouse = assay: Lipedema size after injection into the edema site of lipedema-induced mice (caliper, thigh cross-sectional area); type: in vivo; settings: 15 mg/kg/day injected into edema site, measured every day, versus untreated experimental group
Method: as §1
PBS (control) or butein (15 mg/kg/day) was injected into an edema site of the lipedema-induced mouse prepared in Example 5, and the edema size was measured every day.
A thigh area present between the knee and the trunk of the lipedema-induced site of the experimental animal was measured using a caliper. The cross-sectional area of lipedema was calculated from the width and length of the thigh and recorded, and thus a change in size of lipedema during observation was found.

PPAR-γ mRNA [2] = assay: PPAR-γ mRNA in lymphedema tissue by real time PCR; type: in vivo, mouse
Method: (§3) As mice, Outbred Mice ICR originating from Charles River Laboratories (Wilmington, Mass.) were used. 3 μl of 2% methylene blue as a staining dye for staining lymph nodes and lymphatic vessels was injected into the top of a right foot. After the injection, the right foot was massaged for about 3 minutes to allow a flow of the staining dye through lymphatic vessels to stain the lymphatic system. Zoletil50 (0.6 mg/kg) and Rompun (0.4 mg/kg), which are commercially provided by Bayer Korea, were administered as anesthetic drugs at the maximum content of 100 μl by intraperitoneal injection.
Specifically, a mouse was anesthetized with the anesthetic drugs (Zoletil50, Rompun), and its chest was shaved to facilitate a surgical operation and suturing, and observation. […]
In this example, to investigate a mechanism for inducing reduction in lymphedema, expression of an adipocyte-related marker greatly found in edema was examined. […] An edema tissue was collected, and mRNAs of adipocyte markers such as PPAR-γ and aP2 that are greatly found in edema were quantitatively analyzed by real time PCR, the result of which is shown in FIG. 2 (normal control: control group in which edema was not induced (n=3), edema+PBS: group into which PBS was injected after edema induction (n=4), edema+butein: group into which butein was injected after edema induction (15 mg/kg/day) (n=5)). […]

lymphedema-induced mouse [3] = assay: Lymphedema size after daily injection into the edema site of lymphedema-induced mice (caliper, thigh cross-sectional area); type: in vivo; settings: measured every day, compared to control group
Method: as §3
(§4) Specifically, a mouse was anesthetized with the anesthetic drugs (Zoletil50, Rompun), and its chest was shaved to facilitate a surgical operation and suturing, and observation. A small amount (3 μl) of a 2% methylene blue solution was injected into the top of the right foot, and then the injected site was massaged for 3 minutes to allow the staining dye to spread well through the lymphatic vessels. […]
Each of PBS, hyaluronidase and butein was administered into an edema site of the mouse prepared in Example 1 at 15 mg per kg a day, and the size of edema was measured each day.
The cross-sectional area of lymphedema was calculated from the width and length of the thigh and recorded, and thus a change in size of lymphedema during observation was found.
Each of PBS, hyaluronidase and sulfuretin (15 mg/kg/day) was injected into an edema site of the mouse prepared in Example 1, and the size of edema was measured every day.
FIG. 8 illustrates the inhibition of lymphedema by sulfuretin, and the size measurement was performed on a thigh area present between the knee and the trunk of the lymphedema-induced site of the experimental animal using a caliper. The cross-sectional area of lymphedema was calculated from the width and length of the thigh and recorded, and thus a change in the lymphedema size that occurs in observation was found.
Each of PBS, hyaluronidase and isoflavone (100 mg/kg/day) was injected into an edema site of the mouse prepared in Example 1, and the size of edema was measured every day. […]

aP2 mRNA [4] = assay: aP2 mRNA in lipedema tissue; type: in vivo, mouse; settings: butein injected for 14 days
Method: as §1, §2

aP2 mRNA [5] = assay: aP2 mRNA in lymphedema tissue by real time PCR; type: in vivo, mouse
Method: as §3
as §4, with “vessels. To minimize inflammation which may be caused when lymph nodes in a groin region were excised and lymphatic vessels in a thigh were blocked, a minimum area of the right groin was incised open.” for “vessels.”
In this example, to investigate a mechanism for inducing reduction in lymphedema, expression of an adipocyte-related marker greatly found in edema was examined. […] An edema tissue was collected, and mRNAs of adipocyte markers such as PPAR-γ and aP2 that are greatly found in edema were quantitatively analyzed by real time PCR, the result of which is shown in FIG. […]
In this example, to investigate a mechanism for inducing reduction in lymphedema, expression of an adipocyte-related marker easily found in edema was examined. […] An edema tissue was collected, and mRNAs of adipocyte markers such as PPAR-γ and aP2, which are greatly found in edema, were quantitatively analyzed by real time PCR, and the result is shown in FIG. […]

lymphedema-induced mouse [6] = assay: Lymphedema reduction after subcutaneous injection for 5 days (leg images); type: in vivo; settings: compared to control group
Method: as §3
Specifically, a mouse was anesthetized with the anesthetic drugs (Zoletil50, Rompun), and its chest was shaved to facilitate a surgical operation and suturing, and observation. A small amount (3 μl) of a 2% methylene blue solution was injected into the top of the right foot, and then the injected site was massaged for 3 minutes to allow the staining dye to spread well through the lymphatic vessels. To minimize inflammation which may be caused when lymph nodes in a groin region were excised and lymphatic vessels in a thigh were blocked, a minimum area of the right groin was incised open. Afterward, a superficial inguinal node and popliteal node, and a deep inguinal node, which were stained with methylene blue, were sequentially removed, and the stained lymphatic vessels in the right thigh were blocked using a soldering iron. Since 70 to 80% of the total lymphatic vessels were present in a subcutaneous region, the subcutaneous region in a suturing site was seared with the soldering iron to completely block the lymphatic system under the suturing site, and the right thigh was finally closed by suturing. About 3 days later, an increase in edema was confirmed.
Butein (15 mg/kg/day) was administered into an animal in which lymphedema was induced by lymph excision in Example 1 by subcutaneous injection for 5 days, and the result is shown in FIG. 3. […]

[7] = 15 mg/kg/day injected into edema site
[8] = 15 mg/kg/day subcutaneous injection for 5 days

Question: Which “mRNA expression of PPAR-γ in edema tissue” value (“mRNA expression of PPAR-γ” below) (PPAR-γ mRNA [1]) does the source give for `O=C(/C=C/c1ccc(O)c(O)c1)c1ccc(O)cc1O` [butein] here?
Answer: reduced

Question: And the “edema size (lipedema)” value (lipedema-induced mouse)?
Answer: more rapidly and greatly reduced

Question: What about the “mRNA expression of PPAR-γ” value (PPAR-γ mRNA [2]; 15 mg/kg/day for 14 days) of the same molecule?
Answer: inhibits

Question: And the size of lymphedema (lymphedema-induced mouse [3]; [7])?
Answer: significantly reduced

Question: What about the “mRNA expression of aP2 in edema tissue” value (aP2 mRNA [4]) of the same molecule?
Answer: reduced

Question: And the “mRNA expression of aP2 in edema tissue” value (aP2 mRNA [5]; 15 mg/kg/day for 14 days)?
Answer: inhibits

Question: And the size of lymphedema (lymphedema-induced mouse [6]; [8])?
Answer: significantly reduced

Question: For `O=c1c(-c2ccccc2)coc2ccccc12` [isoflavone], which “mRNA expression of PPAR-γ” value (PPAR-γ mRNA [2]; 100 mg/kg/day for 14 days) is on record?
Answer: inhibits

Question: And the size of lymphedema (lymphedema-induced mouse [3]; 100 mg/kg/day injected into edema site)?
Answer: significantly reduced

Question: What about the “mRNA expression of aP2 in edema tissue” value (aP2 mRNA [5]; 100 mg/kg/day for 14 days) of the same molecule?
Answer: inhibits

Question: And the size of lymphedema (lymphedema-induced mouse [6]; 100 mg/kg/day subcutaneous injection for 5 days)?
Answer: significantly reduced

Question: Which results are given for `O=C1/C(=C/c2ccc(O)c(O)c2)Oc2cc(O)ccc21` [sulfuretin]?
Answer: size of lymphedema (lymphedema-induced mouse [3]; [7]): significantly reduced; mRNA expression of aP2 in edema tissue (aP2 mRNA [5]; 15 mg/kg/day for 14 days): inhibits; size of lymphedema (lymphedema-induced mouse [6]; [8]): significantly reduced
